Data from PMC8034185, “The rumen eukaryotome is a source of novel antimicrobial peptides with therapeutic potential” (BMC Microbiology, 2021).
Bridge positions count the residues as written; N and C are the ends. Square brackets hold non-standard residues; d marks the D form. Ends that are not written are not given here. Peptide text beside a SMILES is read from it. * marks the point of attachment. X1 = CC[C@H](C)CCCCC(=O)*; Dab = NCC[C@H](N)C(=O)O

Assays:
Assay in all cases: microbe, parasite or virus in culture
E. coli K12 = assay type: cell-based, Escherichia coli; details: modified broth microdilution, cation-adjusted Mueller Hinton broth, inoculum 5 × 10^5 CFU/mL, 18 h, quadruplicate; highest concentration tested 512 μg/mL
Protocol: (§1) MICs against a range of clinically important Gram-positive and Gram-negative bacteria strains including methicillin-sensitive Staphylococcus aureus (MSSA) RN4220 epidemic methicillin-resistant S. aureus-15 (EMRSA-15), methicillin-resistant S. aureus USA300 (MRSA USA300), Bacillus cereus, Enterococcus faecalis JH2–2, Escherichia coli K12, Salmonella enterica serovar Typhimurium SL1344, P. aeruginosa PAO1, and hospital isolates of Acinetobacter baummannii were determined in quadruplicate by a modified microdilution broth method [64] with a final bacterial inoculum concentration of 5 × 10^5 CFU/mL utilised as the test organisms. Cation-adjusted Mueller Hinton (MH) broth was innoclated overnight with a single colony of the tested microorganisms, subsequently grown for 16–24 h with shaking at 225 rpm, and further diluted in the same broth to a final concentration of 5 × 10^5 CFU/mL. The bacterial suspension was added to sterile U-bottomed 96-well plates, and the peptides and control antibiotics to be tested were dissolved in sterile distilled water and serially diluted in the wells. The MICs were recorded as the lowest peptide concentration that inhibited growth after incubation for 18 h [65].

Sal. Tyhimurium (SL1344) = assay type: cell-based, Salmonella enterica serovar Typhimurium; details: modified broth microdilution, cation-adjusted Mueller Hinton broth, inoculum 5 × 10^5 CFU/mL, 18 h, quadruplicate; highest concentration tested 512 μg/mL
Protocol: as §1

P. aeruginosa PAO1 = assay type: cell-based, Pseudomonas aeruginosa; details: modified broth microdilution, cation-adjusted Mueller Hinton broth, inoculum 5 × 10^5 CFU/mL, 18 h, quadruplicate; highest concentration tested 512 μg/mL
Protocol: as §1

P. aeruginosa H174 = assay type: cell-based, Pseudomonas aeruginosa; details: modified broth microdilution, cation-adjusted Mueller Hinton broth, inoculum 5 × 10^5 CFU/mL, 18 h, quadruplicate; highest concentration tested 512 μg/mL
Protocol: as §1

A. baumannii DSMZ 30007 = assay type: cell-based, Acinetobacter baumannii; details: modified broth microdilution, cation-adjusted Mueller Hinton broth, inoculum 5 × 10^5 CFU/mL, 18 h, quadruplicate; highest concentration tested 512 μg/mL
Protocol: as §1

A. baumannii S27379 Sen = assay type: cell-based, Acinetobacter baumannii; details: sensitive hospital isolate; modified broth microdilution, cation-adjusted Mueller Hinton broth, inoculum 5 × 10^5 CFU/mL, 18 h, quadruplicate; highest concentration tested 512 μg/mL
Protocol: as §1

[1] = system: A. baumannii S15785 OXA-23/0XA-50; assay type: cell-based, Acinetobacter baumannii; details: modified broth microdilution, cation-adjusted Mueller Hinton broth, inoculum 5 × 10^5 CFU/mL, 18 h, quadruplicate; highest concentration tested 512 μg/mL
Protocol: as §1

A. baumannii IMI/MER-R = assay type: cell-based, Acinetobacter baumannii; details: imipenem/meropenem resistant; modified broth microdilution, cation-adjusted Mueller Hinton broth, inoculum 5 × 10^5 CFU/mL, 18 h, quadruplicate; highest concentration tested 512 μg/mL
Protocol: as §1

S. aureus MSSA (RN4220) = assay type: cell-based, Staphylococcus aureus; details: modified broth microdilution, cation-adjusted Mueller Hinton broth, inoculum 5 × 10^5 CFU/mL, 18 h, quadruplicate; highest concentration tested 512 μg/mL
Protocol: as §1

S. aureus USA300 = assay type: cell-based, Staphylococcus aureus; details: modified broth microdilution, cation-adjusted Mueller Hinton broth, inoculum 5 × 10^5 CFU/mL, 18 h, quadruplicate; highest concentration tested 512 μg/mL
Protocol: as §1

S. aureus ATCC 33591 = assay type: cell-based, Staphylococcus aureus; details: modified broth microdilution, cation-adjusted Mueller Hinton broth, inoculum 5 × 10^5 CFU/mL, 18 h, quadruplicate; highest concentration tested 512 μg/mL
Protocol: as §1

S. aureus EMRSA-15 = assay type: cell-based, Staphylococcus aureus; details: modified broth microdilution, cation-adjusted Mueller Hinton broth, inoculum 5 × 10^5 CFU/mL, 18 h, quadruplicate; highest concentration tested 512 μg/mL
Protocol: as §1

Ent. faecalis (JH2–2) = assay type: cell-based, Enterococcus faecalis; details: modified broth microdilution, cation-adjusted Mueller Hinton broth, inoculum 5 × 10^5 CFU/mL, 18 h, quadruplicate; highest concentration tested 512 μg/mL
Protocol: as §1

B. cereus = assay type: cell-based, Bacillus cereus; details: modified broth microdilution, cation-adjusted Mueller Hinton broth, inoculum 5 × 10^5 CFU/mL, 18 h, quadruplicate; highest concentration tested 512 μg/mL
Protocol: as §1

Molecule: CC[C@H](C)CCCCC(=O)N[C@@H](CCN)C(=O)N[C@H](C(=O)N[C@@H](CCN)C(=O)N[C@H]1CCNC(=O)[C@H]([C@@H](C)O)NC(=O)[C@H](CCN)NC(=O)[C@H](CCN)NC(=O)[C@H](CC(C)C)NC(=O)[C@@H](Cc2ccccc2)NC(=O)[C@H](CCN)NC1=O)[C@@H](C)O [Polymyxin B] (X1-[Dab]T[Dab][Dab][Dab][dF]L[Dab][Dab]T; lactam 4-C (inferred); N-terminus assumed)
- Minimum Inhibitory Concentration, E. coli K12 (E. coli K12): 0.5 µg/mL
- Minimum Inhibitory Concentration, Sal. Tyhimurium (Sal. Tyhimurium (SL1344)): 1 µg/mL
- Minimum Inhibitory Concentration, P. aeruginosa PAO1 (P. aeruginosa PAO1): 2 µg/mL
- Minimum Inhibitory Concentration, P. aeruginosa H174 (P. aeruginosa H174): 1 µg/mL
- Minimum Inhibitory Concentration, A. baumannii DSMZ 30007 (A. baumannii DSMZ 30007): 1 µg/mL
- Minimum Inhibitory Concentration, A. baumannii S27379 Sen (A. baumannii S27379 Sen): 1 µg/mL
- Minimum Inhibitory Concentration, A. baumannii S15785 OXA-23/0XA-50 [1]: 0.5 µg/mL
- Minimum Inhibitory Concentration, A. baumannii IMI/MER-R (A. baumannii IMI/MER-R): 1 µg/mL

Molecule: KGLTVKFKVKN [Lub_376]
- Minimum Inhibitory Concentration, S. aureus MSSA (S. aureus MSSA (RN4220)): > 512 µg/mL
- Minimum Inhibitory Concentration, S. aureus USA300 (S. aureus USA300): > 512 µg/mL
- Minimum Inhibitory Concentration, S. aureus ATCC 33591 (S. aureus ATCC 33591): > 512 µg/mL
- Minimum Inhibitory Concentration, S. aureus EMRSA-15 (S. aureus EMRSA-15): > 512 µg/mL
- Minimum Inhibitory Concentration, Ent. faecalis (Ent. faecalis (JH2–2)): > 512 µg/mL
- Minimum Inhibitory Concentration, B. cereus (B. cereus): > 512 µg/mL
- Minimum Inhibitory Concentration, E. coli K12 (E. coli K12): > 512 µg/mL
- Minimum Inhibitory Concentration, Sal. Tyhimurium (Sal. Tyhimurium (SL1344)): > 512 µg/mL
- Minimum Inhibitory Concentration, P. aeruginosa PAO1 (P. aeruginosa PAO1): > 512 µg/mL
- Minimum Inhibitory Concentration, P. aeruginosa H174 (P. aeruginosa H174): > 512 µg/mL
- Minimum Inhibitory Concentration, A. baumannii DSMZ 30007 (A. baumannii DSMZ 30007): > 512 µg/mL
- Minimum Inhibitory Concentration, A. baumannii S27379 Sen (A. baumannii S27379 Sen): > 512 µg/mL
- Minimum Inhibitory Concentration, A. baumannii S15785 OXA-23/0XA-50 [1]: > 512 µg/mL
- Minimum Inhibitory Concentration, A. baumannii IMI/MER-R (A. baumannii IMI/MER-R): > 512 µg/mL
